Experimental data published in ChEMBL document CHEMBL1667722, “Radical scavenging and antioxidant activities of isocoumarins and a phthalide from the endophytic fungus Colletotrichum sp” (J Nat Prod, 2011).

Experiments:
HepG2 = test: Cytotoxicity against human HepG2 cells by MTT assay; format: functional, cell-based
Aromatase = molecular target: T1, Aromatase (Homo sapiens, UniProt P11511); test: Inhibition of CYP19
T1 sequence (P11511 whole entry): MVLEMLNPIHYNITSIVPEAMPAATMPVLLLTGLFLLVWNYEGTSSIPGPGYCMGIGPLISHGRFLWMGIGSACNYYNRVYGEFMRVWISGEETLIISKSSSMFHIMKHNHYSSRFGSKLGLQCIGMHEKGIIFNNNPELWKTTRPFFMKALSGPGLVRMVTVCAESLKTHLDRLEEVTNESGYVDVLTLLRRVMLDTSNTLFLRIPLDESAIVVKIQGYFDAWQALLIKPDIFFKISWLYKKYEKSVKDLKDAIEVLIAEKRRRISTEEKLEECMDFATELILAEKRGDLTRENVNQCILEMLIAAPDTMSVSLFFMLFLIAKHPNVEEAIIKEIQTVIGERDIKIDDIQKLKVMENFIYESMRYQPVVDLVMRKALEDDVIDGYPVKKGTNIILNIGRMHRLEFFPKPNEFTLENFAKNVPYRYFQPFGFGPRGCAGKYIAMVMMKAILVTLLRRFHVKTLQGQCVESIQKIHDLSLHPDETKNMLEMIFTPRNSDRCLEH

MOLT-3 = test: Cytotoxicity against human MOLT3 cells by XTT assay; format: functional, cell-based
[1] = molecular target: Xanthine dehydrogenase/oxidase (Homo sapiens, UniProt P47989); test: Inhibition of Xanthine oxidase
HL-60 = test: Antioxidant activity in human HL60 cells assessed as inhibition of TPA-induced superoxide anion radical production; format: functional, cell-based
[2] = Cytotoxicity against human HuCCA1 cells by MTT assay; format: functional, cell-based; conditions: HuCC-A1
A549 = test: Cytotoxicity against human A549 cells by MTT assay; format: functional, cell-based
[3] = tested on: Radical scavenging activity; test: Antioxidant activity assessed as DPPH radical scavenging activity; format: functional
[4] = Antioxidant activity assessed as inhibition of xanthine-xanthine oxidase generated superoxide anion radical production; format: functional

Sequence of Xanthine dehydrogenase/oxidase (P47989 whole entry): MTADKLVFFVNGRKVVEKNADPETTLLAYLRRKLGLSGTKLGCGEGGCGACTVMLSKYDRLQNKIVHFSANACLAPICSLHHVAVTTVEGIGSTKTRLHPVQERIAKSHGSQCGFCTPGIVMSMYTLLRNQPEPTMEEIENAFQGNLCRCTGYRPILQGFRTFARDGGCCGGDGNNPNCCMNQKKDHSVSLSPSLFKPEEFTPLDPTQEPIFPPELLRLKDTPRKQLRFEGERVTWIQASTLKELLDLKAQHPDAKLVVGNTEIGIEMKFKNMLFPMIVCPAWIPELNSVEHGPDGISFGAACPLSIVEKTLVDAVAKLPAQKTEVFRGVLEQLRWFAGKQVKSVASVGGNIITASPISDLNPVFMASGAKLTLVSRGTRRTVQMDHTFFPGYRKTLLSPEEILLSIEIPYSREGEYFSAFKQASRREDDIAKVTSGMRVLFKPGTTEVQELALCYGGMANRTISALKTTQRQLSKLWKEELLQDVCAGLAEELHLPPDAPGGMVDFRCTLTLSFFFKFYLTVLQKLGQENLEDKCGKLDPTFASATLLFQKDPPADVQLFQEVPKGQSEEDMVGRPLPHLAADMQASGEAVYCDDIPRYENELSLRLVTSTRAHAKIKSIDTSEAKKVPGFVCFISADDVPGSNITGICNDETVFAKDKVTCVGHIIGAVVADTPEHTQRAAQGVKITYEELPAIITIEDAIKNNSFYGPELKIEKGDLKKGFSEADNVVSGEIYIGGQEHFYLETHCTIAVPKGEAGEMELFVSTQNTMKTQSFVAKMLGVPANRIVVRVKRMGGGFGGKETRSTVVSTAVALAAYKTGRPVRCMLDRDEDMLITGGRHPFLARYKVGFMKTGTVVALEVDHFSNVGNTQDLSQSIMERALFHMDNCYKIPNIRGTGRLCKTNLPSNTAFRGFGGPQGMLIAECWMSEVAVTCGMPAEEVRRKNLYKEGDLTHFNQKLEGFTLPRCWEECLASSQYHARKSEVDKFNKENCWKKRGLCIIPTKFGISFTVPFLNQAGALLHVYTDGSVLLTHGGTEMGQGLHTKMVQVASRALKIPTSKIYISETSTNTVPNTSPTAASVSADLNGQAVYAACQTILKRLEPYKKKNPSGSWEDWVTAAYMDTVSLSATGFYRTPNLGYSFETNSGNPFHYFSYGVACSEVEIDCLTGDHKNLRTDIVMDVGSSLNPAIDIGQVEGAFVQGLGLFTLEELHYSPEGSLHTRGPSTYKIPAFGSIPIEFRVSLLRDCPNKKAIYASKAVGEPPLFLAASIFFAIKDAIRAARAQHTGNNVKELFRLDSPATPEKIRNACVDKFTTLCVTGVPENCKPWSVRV

Row | IC50 (Aromatase) [µM] | IC50 [1] [µM] | IC50 (HL-60) [µM] | IC50 [3] [µM] | IC50 [4] [µM] | Compound | IC50 (HepG2) [µM] | IC50 (MOLT-3) [µM] | IC50 [2] [µM] | IC50 (A549) [µM]
1 | > 16.9 | > 679 | > 136 | 23.4 | 52.6 | CCC[C@H]1C[C@H]2OC(=O)c3c(cc(OC)c(O)c3O)[C@H]2O1 | 23.7 | 124 | > 170 | > 170
2 | > 15.3 | > 612 | > 122 | > 306 | 352 | CCC[C@@H](O)C[C@H]1OC(=O)c2c(cc(OC)c(OC)c2O)[C@H]1O | – | > 153 | – | –
3 | – | – | – | 21.2 | – | O=C1O[C@H]([C@@H](O)CO)C(O)=C1O [ASCORBIC ACID] | – | – | – | –
4 | > 16.2 | > 648 | > 130 | > 324 | – | CCCC(=O)CC[C@H]1OC(=O)c2c1cc(OC)c(OC)c2O [COLLETOTRIALIDE] | > 162 | 148 | > 162 | > 162
5 | – | – | – | – | – | COc1cccc2c1C(=O)c1c(O)c3c(c(O)c1C2=O)C[C@@](O)(C(=O)CO)C[C@@H]3O[C@H]1C[C@H](N)[C@H](O)[C@H](C)O1 [DOXORUBICIN] | 0.29 | – | 0.67 | 0.34
6 | – | – | – | – | – | COc1cc([C@@H]2c3cc4c(cc3[C@@H](O[C@@H]3O[C@@H]5CO[C@@H](C)O[C@H]5[C@H](O)[C@H]3O)[C@H]3COC(=O)[C@H]23)OCO4)cc(OC)c1O [ETOPOSIDE] | 15.8 | 0.03 | – | –
7 | > 16.1 | > 644 | > 128 | > 322 | – | CCC[C@H](O)C[C@@H]1Cc2cc(OC)c(OC)c(O)c2C(=O)O1 [FUSARENTIN 6,7-DIMETHYLETHER] | 121 | 115 | > 161 | > 161
8 | > 16.8 | > 675 | > 135 | 16.4 | 4.3 | CCC[C@H](O)C[C@@H]1Cc2cc(OC)c(O)c(O)c2C(=O)O1 [FUSARENTIN 6-METHYL ETHER] | – | > 169 | – | –

Row | Compound | IC50 (Aromatase) [µM] | IC50 [1] [µM] | IC50 (HL-60) [µM] | IC50 [3] [µM] | IC50 [4] [µM] | IC50 (HepG2) [µM] | IC50 (MOLT-3) [µM] | IC50 [2] [µM] | IC50 (A549) [µM]
9 | Oc1ncnc2[nH]ncc12 [ALLOPURINOL] | – | – | – | – | 3 | – | – | – | –
10 | CCC[C@H]1C[C@H]2OC(=O)c3c(cc(OC)c(OC)c3O)[C@H]2O1 [MONOCERIN] | > 16.2 | > 648 | > 130 | > 324 | > 648 | > 162 | 153 | > 162 | > 162
